We go through four compounds from ChEMBL document CHEMBL1156964, “Bioconjugates of curcumin display improved protection against glutathione depletion mediated oxidative stress in a dopaminergic neuronal cell line: Implications for Parkinson's disease” (2010).

Active and inactive are the calls of the source. The rule behind the calls is not given here.

The nature of assay [1]: Increase in GSH level in rat N27 cells at 0.5 uM after 24 hrs. It is filed as functional.
The subject of assay [2] is N27. The experiment in a line: Neuroprotective effect against rat N27 cells assessed as reduction of BSO-induced reduction of GST activity at 0.5 uM treated 24 hrs after BSO withdrawal relative to control. Format: functional, cell-based.
Assay [3] can be described thus: Neuroprotective effect against rat N27 cells assessed as reduction of BSO-induced increase in reactive oxygen species level at 0.5 uM after 24 hrs by DCFDA fluorescence assay relative to control. It is filed as functional. Set-up: scale not given: the % may be the effect or the level left.
Assay [4] in a line: Neuroprotective effect against rat N27 cells assessed as reduction of BSO-induced increase in hydrogen peroxide level at 0.5 uM after 24 hrs using FOX1 reagent. Format: functional. Set-up: scale not given: the % may be the effect or the level left.
A short description of assay [5]: Neuroprotective effect against rat N27 cells assessed as reduction of BSO-induced increase in MDA level at 0.5 uM by thiobarbituric acid reaction method after 24 hrs BSO withdrawal relative to control. Format: functional. Further details: scale not given: the % may be the effect or the level left.
Assay [6] in a line: Neuroprotective effect against rat N27 cells assessed as reduction of BSO-induced increase in reactive oxygen species level at 0.5 uM treated 24 hrs after BSO withdrawal by DCFDA fluorescence assay relative to control. It is filed as functional. Further details: scale not given: the % may be the effect or the level left.
Assay [7] has as its system N27. The experiment in a line: Increase in ROS level in rat N27 cells at 0.5 uM by DCFDA fluorescence assay. Format: functional, cell-based.
Assay [8] is described as follows: Neuroprotective effect in rat N27 cells assessed as Inhibition of BSO-induced GSH depletion at 0.5 uM after 24 hrs by DTNB recycling method relative to control. Format: functional. The conditions noted are these: N27, 24 h.
Assay [9] is described as follows: Neuroprotective effect against rat N27 cells assessed as reduction of BSO-induced increase in MDA level at 0.5 uM after 24 hrs by thiobarbituric acid reaction method relative to control. Further details: scale not given: the % may be the effect or the level left. It is filed as functional.
The subject of assay [10] is N27. The experiment in a line: Neuroprotective effect against rat N27 cells assessed as reduction of BSO-induced reduction of GST activity at 0.5 uM relative to control. It is filed as functional, cell-based.
Assay [11] in a line: Neuroprotective effect against rat N27 cells assessed as reduction of BSO-induced increase in hydrogen peroxide level at 0.5 uM treated 24 hrs after BSO withdrawal using FOX1 reagent relative to control. Set-up: scale not given: the % may be the effect or the level left. It is filed as functional.

As a reminder, the inhibition is the relative decrease from the control value, in per cent. For the compound `COc1cc(/C=C/C(=O)CC(=O)/C=C/c2ccc(OC(=O)/C=C/C=C/c3ccc(O)c(O)c3)c(OC)c2)ccc1OC(=O)/C=C/C=C/c1ccc(O)c(O)c1`, the Activity in assay [1] is listed as 25%; in assay [3], 65%; in assay [4], 50%; in assay [5], 75%; in [6], 55%; in assay [9] it was 50%. Besides, the result with N27 [2] and in the assay with N27 [10] was Active. Further, the outcome in the assay with N27 [7] was inactive. For the same compound, in assay [8], the inhibition at 0.5 µM stood at 78%.

Turning to `COc1cc(/C=C/C(=O)CC(=O)/C=C/c2ccc(OC(=O)[C@@H](N)C(C)C)c(OC)c2)ccc1OC(=O)[C@@H](N)C(C)C`, the Activity in assay [1] worked out at 50%; in [3], 60%; in [5], 80%; in assay [6], 70%; in [11], 80%; in assay [9] it was 30%. Moreover, the result in the assay on N27 [2] and in the assay with N27 [10] was Active. Also, the outcome with N27 [7] was inactive. Besides, in assay [8], the inhibition at 0.5 µM was determined as 72%.

With `COc1cc(/C=C/C(=O)CC(=O)/C=C/c2ccc(O)c(OC)c2)ccc1O` [CURCUMIN], the Activity in assay [1] was 30%; in [3], 45%; in assay [4], 50%; in assay [5], 65%; in assay [6], 50%; in [9], 40%. The result in the assay with N27 [2] and with N27 [10] was Active. Further, the outcome in the assay with N27 [7] was inactive. Besides, the inhibition at 0.5 µM in assay [8] was determined as 78%.

In the case of `COc1cc(/C=C/C(=O)CC(=O)/C=C/c2ccc(OC(=O)[C@@H](N)CCC(=O)O)c(OC)c2)ccc1OC(=O)[C@@H](N)CCC(=O)O`, the Activity was determined as 64% in assay [1]; 90% in assay [3]; 50% in assay [4]; 90% in [5]; 80% in assay [6]; 50% in assay [9]. In addition, the outcome with N27 [2] and in the assay on N27 [10] was Active. Also, in the assay with N27 [7], the outcome was inactive. Further, in assay [8], the inhibition at 0.5 µM turned out to be 83%.
